Experimental data taken from ChEMBL document CHEMBL4387741, “Optimization of novel reversible Bruton's tyrosine kinase inhibitors identified using Tethering-fragment-based screens” (Bioorg Med Chem, 2019).

Key:
[1] = tested on: Tyrosine-protein kinase ABL1 (Homo sapiens), P00519 [Q252H]; experiment: Inhibition of human non-phosphorylated ABL1 Q252H mutant (S229 to K512 residues) expressed in mammalian expression system at 1 uM by Kinomescan method relative to control
[2] = target: T1, Tyrosine-protein kinase BTK (Homo sapiens, UniProt Q06187); experiment: Inhibition of wild-type human full length BTK (M1 to S659 residues) expressed in mammalian expression system at 1 uM by Kinomescan method relative to control
T1 sequence (Q06187 whole entry, the tested form may be a part): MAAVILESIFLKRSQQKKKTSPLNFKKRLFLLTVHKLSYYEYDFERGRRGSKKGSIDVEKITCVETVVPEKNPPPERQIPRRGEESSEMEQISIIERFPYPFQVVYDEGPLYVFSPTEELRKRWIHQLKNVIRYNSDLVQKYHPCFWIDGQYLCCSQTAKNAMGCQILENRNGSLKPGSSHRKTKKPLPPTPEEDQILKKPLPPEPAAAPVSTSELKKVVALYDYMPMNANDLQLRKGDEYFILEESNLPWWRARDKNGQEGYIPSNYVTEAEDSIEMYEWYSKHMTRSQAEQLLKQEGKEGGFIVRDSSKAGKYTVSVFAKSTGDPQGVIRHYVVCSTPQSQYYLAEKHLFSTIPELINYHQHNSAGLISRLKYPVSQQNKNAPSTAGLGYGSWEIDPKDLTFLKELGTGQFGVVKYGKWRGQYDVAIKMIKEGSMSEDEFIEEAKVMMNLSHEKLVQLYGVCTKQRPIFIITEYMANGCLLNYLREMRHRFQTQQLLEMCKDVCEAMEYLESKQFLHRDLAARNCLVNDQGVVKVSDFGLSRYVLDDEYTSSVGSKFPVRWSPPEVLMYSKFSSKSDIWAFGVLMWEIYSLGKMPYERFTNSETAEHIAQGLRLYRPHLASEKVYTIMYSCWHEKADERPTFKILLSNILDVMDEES

[3] = target: Calcium/calmodulin-dependent protein kinase type IV (Homo sapiens) (UniProt Q16566); experiment: Inhibition of wild-type human partial length CAMK4 (A22 to A322 residues) expressed in bacterial expression system at 1 uM by Kinomescan method relative to control
[4] = target: Casein kinase I isoform alpha-like (Homo sapiens) (UniProt Q8N752); experiment: Inhibition of wild-type human full length CSNK1A1L (M1 to N337 residues) expressed in bacterial expression system at 1 uM by Kinomescan method relative to control
[5] = target: Casein kinase I isoform epsilon (Homo sapiens) (UniProt P49674); experiment: Inhibition of wild-type human full length CSNK1E (M1 to K416 residues) expressed in bacterial expression system at 1 uM by Kinomescan method relative to control
Chain of Casein kinase I isoform epsilon (Homo sapiens) (P49674 whole entry, looked up, the tested form may be a part, canonical isoform): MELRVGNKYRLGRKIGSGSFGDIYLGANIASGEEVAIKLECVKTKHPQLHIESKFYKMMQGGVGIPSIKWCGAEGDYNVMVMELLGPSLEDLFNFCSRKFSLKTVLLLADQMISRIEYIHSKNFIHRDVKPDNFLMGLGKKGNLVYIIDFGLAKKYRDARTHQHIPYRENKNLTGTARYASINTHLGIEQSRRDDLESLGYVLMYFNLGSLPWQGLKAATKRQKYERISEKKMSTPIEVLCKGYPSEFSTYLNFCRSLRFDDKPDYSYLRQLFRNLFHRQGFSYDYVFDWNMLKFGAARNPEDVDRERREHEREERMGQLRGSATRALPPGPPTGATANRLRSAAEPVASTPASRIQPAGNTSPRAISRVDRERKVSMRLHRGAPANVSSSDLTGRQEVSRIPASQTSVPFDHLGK

[6] = tested on: Epidermal growth factor receptor (Homo sapiens), P00533 [T790M]; experiment: Inhibition of human partial length EGFR T790M mutant (R669 to G1022 residues) expressed in mammalian expression system at 1 uM by Kinomescan method relative to control
[7] = target: Mitogen-activated protein kinase kinase kinase 9 (Homo sapiens) (UniProt P80192); experiment: Inhibition of wild-type human partial length MLK1 (V88 to W426 residues) expressed in bacterial expression system at 1 uM by Kinomescan method relative to control
Chain of Mitogen-activated protein kinase kinase kinase 9 (Homo sapiens) (P80192 whole entry, looked up, the tested form may be a part): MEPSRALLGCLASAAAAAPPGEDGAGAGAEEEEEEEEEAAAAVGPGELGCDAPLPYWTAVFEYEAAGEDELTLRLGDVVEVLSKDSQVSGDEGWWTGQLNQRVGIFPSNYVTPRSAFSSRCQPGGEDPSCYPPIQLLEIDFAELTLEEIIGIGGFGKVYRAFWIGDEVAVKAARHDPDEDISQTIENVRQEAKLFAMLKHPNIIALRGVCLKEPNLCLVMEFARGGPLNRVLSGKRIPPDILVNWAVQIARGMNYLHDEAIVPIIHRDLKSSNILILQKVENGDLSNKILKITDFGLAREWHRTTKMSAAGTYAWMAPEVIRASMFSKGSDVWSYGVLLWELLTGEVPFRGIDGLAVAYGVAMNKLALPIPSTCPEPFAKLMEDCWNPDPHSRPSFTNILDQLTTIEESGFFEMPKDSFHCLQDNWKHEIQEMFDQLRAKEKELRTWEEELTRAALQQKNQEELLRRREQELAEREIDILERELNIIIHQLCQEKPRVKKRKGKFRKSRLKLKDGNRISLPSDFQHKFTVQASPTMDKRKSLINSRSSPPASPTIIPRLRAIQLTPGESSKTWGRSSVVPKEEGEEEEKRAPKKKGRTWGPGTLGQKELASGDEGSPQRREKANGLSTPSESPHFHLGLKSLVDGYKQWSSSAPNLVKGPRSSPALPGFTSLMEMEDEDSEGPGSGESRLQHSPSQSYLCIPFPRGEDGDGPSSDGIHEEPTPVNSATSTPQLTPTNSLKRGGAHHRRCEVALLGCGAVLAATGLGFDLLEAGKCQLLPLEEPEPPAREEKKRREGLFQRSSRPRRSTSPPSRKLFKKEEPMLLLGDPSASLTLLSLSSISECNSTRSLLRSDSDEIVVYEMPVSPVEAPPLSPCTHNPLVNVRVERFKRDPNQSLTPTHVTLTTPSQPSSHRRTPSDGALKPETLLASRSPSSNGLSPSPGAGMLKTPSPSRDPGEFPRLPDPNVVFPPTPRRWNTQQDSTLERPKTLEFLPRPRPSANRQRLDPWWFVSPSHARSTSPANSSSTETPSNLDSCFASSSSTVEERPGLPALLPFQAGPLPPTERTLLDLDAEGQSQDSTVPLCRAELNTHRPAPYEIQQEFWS

[8] = target: Serine/threonine-protein kinase 38 (Homo sapiens) (UniProt Q15208); experiment: Inhibition of wild-type human partial length NDR1 (N33 to E449 residues) expressed in mammalian expression system at 1 uM by Kinomescan method relative to control
[9] = target: Serine/threonine-protein kinase Nek2 (Homo sapiens) (UniProt P51955); experiment: Inhibition of wild-type human partial length NEK2 (M1 to K309 residues) expressed in bacterial expression system at 1 uM by Kinomescan method relative to control
[10] = target: Uncharacterized serine/threonine-protein kinase SBK3 (Homo sapiens) (UniProt P0C264); experiment: Inhibition of wild-type human partial length SgK110 (L22 to R329 residues) expressed in bacterial expression system at 1 uM by Kinomescan method relative to control
[11] = target: STE20-like serine/threonine-protein kinase (Homo sapiens) (UniProt Q9H2G2); experiment: Inhibition of wild-type human partial length SLK (S14 to A307 residues) expressed in bacterial expression system at 1 uM by Kinomescan method relative to control
[12] = target: Serine/threonine-protein kinase 16 (Homo sapiens) (UniProt O75716); experiment: Inhibition of wild-type human partial length STK16 (G11 to I305 residues) expressed in bacterial expression system at 1 uM by Kinomescan method relative to control
Chain of Serine/threonine-protein kinase 16 (Homo sapiens) (O75716 whole entry, the tested form may be a part): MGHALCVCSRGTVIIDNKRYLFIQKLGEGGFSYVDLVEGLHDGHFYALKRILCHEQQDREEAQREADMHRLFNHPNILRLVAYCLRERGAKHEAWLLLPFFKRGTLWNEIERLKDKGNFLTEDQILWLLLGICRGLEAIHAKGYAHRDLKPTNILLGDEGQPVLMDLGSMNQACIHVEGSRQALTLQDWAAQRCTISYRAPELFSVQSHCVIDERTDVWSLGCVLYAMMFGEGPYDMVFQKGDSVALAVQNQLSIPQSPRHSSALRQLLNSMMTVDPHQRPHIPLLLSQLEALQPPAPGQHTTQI

[13] = target: Tyrosine-protein kinase Tec (Homo sapiens) (UniProt P42680); experiment: Inhibition of wild-type human partial length TEC (L341 to D620 residues) expressed in bacterial expression system at 1 uM by Kinomescan method relative to control
[14] = target: AP2-associated protein kinase 1 (Homo sapiens) (UniProt Q2M2I8); experiment: Inhibition of human wild-type AAK1 (G25 to L333 residues) expressed in bacterial expression system at 10 uM by Kinomescan method relative to control
[15] = target: Tyrosine-protein kinase Blk (Homo sapiens) (UniProt P51451); experiment: Inhibition of wild-type human partial length BLK (G211 to L503 residues) expressed in bacterial expression system at 10 uM by Kinomescan method relative to control
[16] = target: Cyclin-dependent kinase 3 (Homo sapiens) (UniProt Q00526); experiment: Inhibition of wild-type human full length CDK3 (M1 to H305 residues) expressed in bacterial expression system at 10 uM by Kinomescan method relative to control
Chain of Cyclin-dependent kinase 3 (Homo sapiens) (Q00526 whole entry, looked up, the tested form may be a part): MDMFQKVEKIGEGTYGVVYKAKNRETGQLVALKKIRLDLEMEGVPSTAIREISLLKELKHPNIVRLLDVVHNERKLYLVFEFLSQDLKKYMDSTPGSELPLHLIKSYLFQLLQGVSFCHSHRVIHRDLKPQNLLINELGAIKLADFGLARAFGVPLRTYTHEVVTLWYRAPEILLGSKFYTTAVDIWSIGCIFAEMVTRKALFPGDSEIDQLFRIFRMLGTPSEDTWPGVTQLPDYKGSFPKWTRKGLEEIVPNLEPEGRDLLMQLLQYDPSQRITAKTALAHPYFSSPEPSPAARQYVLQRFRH

[17] = target: Megakaryocyte-associated tyrosine-protein kinase (Homo sapiens) (UniProt P42679); experiment: Inhibition of wild-type human full length CTK (M43 to P508 residues) expressed in mammalian expression system at 10 uM by Kinomescan method relative to control
[18] = target: Serine/threonine-protein kinase DCLK3 (Homo sapiens) (UniProt Q9C098); experiment: Inhibition of wild-type human partial length DCAMKL3 (E140 to V628 residues) expressed in bacterial expression system at 10 uM by Kinomescan method relative to control
[19] = target: Inhibitor of nuclear factor kappa-B kinase subunit beta (Homo sapiens) (UniProt O14920); experiment: Inhibition of wild-type human full length IKK-beta (M1 to S756 residues) expressed in mammalian expression system at 10 uM by Kinomescan method relative to control
[20] = target: Leukocyte tyrosine kinase receptor (Homo sapiens) (UniProt P29376); experiment: Inhibition of wild-type human partial length LTK (P422 to S744 residues) expressed in bacterial expression system at 10 uM by Kinomescan method relative to control
[21] = target: Serine/threonine-protein kinase MAK (Homo sapiens) (UniProt P20794); experiment: Inhibition of wild-type human partial length MAK (M1 to P314 residues) expressed in bacterial expression system at 10 uM by Kinomescan method relative to control
[22] = target: Mitogen-activated protein kinase kinase kinase 9 (Homo sapiens) (UniProt P80192); experiment: Inhibition of wild-type human partial length MLK1 (V88 to W426 residues) expressed in bacterial expression system at 10 uM by Kinomescan method relative to control
[23] = target: Serine/threonine-protein kinase 24 (Homo sapiens) (UniProt Q9Y6E0); experiment: Inhibition of wild-type human partial length MST3 (A30 to S311 residues) expressed in bacterial expression system at 10 uM by Kinomescan method relative to control
Chain of Serine/threonine-protein kinase 24 (Homo sapiens) (Q9Y6E0 whole entry, looked up, the tested form may be a part): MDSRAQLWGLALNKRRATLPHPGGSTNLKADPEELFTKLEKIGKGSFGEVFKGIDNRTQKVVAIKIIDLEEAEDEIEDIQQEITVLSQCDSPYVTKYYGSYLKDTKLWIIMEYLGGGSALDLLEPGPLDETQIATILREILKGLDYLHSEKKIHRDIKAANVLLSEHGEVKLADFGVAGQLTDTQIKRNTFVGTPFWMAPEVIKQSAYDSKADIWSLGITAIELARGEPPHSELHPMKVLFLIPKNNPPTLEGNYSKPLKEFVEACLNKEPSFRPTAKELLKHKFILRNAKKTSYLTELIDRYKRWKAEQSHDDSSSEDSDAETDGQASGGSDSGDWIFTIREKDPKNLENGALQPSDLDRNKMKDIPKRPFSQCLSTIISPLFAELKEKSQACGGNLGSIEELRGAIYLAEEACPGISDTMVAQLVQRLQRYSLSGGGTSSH

[24] = target: Muscle, skeletal receptor tyrosine-protein kinase (Homo sapiens) (UniProt O15146); experiment: Inhibition of wild-type human partial length MUSK (M553 to V869 residues) expressed in bacterial expression system at 10 uM by Kinomescan method relative to control
Chain of Muscle, skeletal receptor tyrosine-protein kinase (Homo sapiens) (O15146 whole entry, the tested form may be a part): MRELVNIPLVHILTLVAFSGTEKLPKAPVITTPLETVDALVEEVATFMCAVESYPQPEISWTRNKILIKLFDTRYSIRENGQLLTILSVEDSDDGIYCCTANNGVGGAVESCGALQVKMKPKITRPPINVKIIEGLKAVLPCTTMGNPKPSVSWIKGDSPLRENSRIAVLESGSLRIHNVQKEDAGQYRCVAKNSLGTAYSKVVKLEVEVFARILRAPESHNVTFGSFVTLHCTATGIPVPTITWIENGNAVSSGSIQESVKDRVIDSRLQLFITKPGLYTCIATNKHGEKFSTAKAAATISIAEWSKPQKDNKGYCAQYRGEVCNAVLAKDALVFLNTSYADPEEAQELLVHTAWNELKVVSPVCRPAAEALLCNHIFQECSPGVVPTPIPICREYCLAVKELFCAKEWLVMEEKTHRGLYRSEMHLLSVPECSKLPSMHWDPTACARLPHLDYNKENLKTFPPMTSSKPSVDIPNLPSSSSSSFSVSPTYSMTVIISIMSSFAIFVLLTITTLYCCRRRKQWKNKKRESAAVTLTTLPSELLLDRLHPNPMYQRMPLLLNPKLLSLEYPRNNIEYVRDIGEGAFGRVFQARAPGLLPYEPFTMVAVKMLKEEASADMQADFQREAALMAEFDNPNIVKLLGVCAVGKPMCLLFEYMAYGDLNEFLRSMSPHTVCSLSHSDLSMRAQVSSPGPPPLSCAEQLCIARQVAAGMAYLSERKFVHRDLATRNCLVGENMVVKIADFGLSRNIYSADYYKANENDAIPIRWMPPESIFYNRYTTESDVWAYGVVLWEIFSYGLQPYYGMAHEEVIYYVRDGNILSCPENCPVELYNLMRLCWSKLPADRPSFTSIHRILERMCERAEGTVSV

[25] = target: Cyclin-dependent kinase 2 homolog (Plasmodium falciparum (isolate 3D7)) (UniProt P61075); experiment: Inhibition of wild-type Plasmodium falciparum full length PK5 (M1 to N288 residues) expressed in mammalian expression system at 10 uM by Kinomescan method relative to control
[26] = target: Serine/threonine-protein kinase TBK1 (Homo sapiens) (UniProt Q9UHD2); experiment: Inhibition of wild-type human full length TBK1 (M1 to L729 residues) expressed in mammalian expression system at 10 uM by Kinomescan method relative to control
Chain of Serine/threonine-protein kinase TBK1 (Homo sapiens) (Q9UHD2 whole entry, the tested form may be a part): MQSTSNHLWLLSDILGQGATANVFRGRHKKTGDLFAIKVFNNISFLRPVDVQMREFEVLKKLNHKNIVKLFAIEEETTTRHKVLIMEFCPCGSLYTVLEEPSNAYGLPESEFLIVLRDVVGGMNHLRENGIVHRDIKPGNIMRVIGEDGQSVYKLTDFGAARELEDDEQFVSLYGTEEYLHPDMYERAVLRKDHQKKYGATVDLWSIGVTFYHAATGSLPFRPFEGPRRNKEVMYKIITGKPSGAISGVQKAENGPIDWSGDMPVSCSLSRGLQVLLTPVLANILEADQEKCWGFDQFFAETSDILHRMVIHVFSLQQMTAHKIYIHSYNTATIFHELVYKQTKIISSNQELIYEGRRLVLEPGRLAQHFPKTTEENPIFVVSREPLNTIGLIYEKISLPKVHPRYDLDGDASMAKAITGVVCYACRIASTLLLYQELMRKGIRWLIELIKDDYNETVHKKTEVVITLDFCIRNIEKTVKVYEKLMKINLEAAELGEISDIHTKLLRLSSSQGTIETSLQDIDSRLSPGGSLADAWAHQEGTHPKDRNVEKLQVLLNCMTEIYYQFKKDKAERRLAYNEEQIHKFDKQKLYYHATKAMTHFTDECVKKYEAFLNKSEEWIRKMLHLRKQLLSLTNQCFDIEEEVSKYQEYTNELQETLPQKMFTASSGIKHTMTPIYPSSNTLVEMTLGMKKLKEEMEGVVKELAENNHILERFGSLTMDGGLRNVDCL

[27] = target: Non-receptor tyrosine-protein kinase TYK2 (Homo sapiens) (UniProt P29597); experiment: Inhibition of wild-type human partial length TYK2 JH2 pseudokinase domain (G556 to D888 residues) expressed in mammalian expression system at 10 uM by Kinomescan method relative to control
[28] = target: T1, Tyrosine-protein kinase BTK; details: 10 uM
Description: Inhibition of wild-type human full length BTK (M1 to S659 residues) expressed in mammalian expression system at 10 uM by Kinomescan method relative to control

## O=C(Nc1cccc([C@@H]2CN(c3ncnc4[nH]ccc34)CCN2CCO)c1)Nc1c(F)cccc1N1CCCC1
[1]
  inhibition: 55%
[2]
  inhibition: 0.3%
[3]
  inhibition: 100%
[4]
  inhibition: 100%
[5]
  inhibition: 94%
[6]
  inhibition: 96%
[7]
  inhibition: 86%
[8]
  inhibition: 72%
[9]
  inhibition: 100%
[10]
  inhibition: 100%
[11]
  inhibition: 88%
[12]
  inhibition: 82%
[13]
  inhibition: 45%

## O=C(Nc1cccc([C@H]2CCCN(c3ncnc4[nH]ccc34)C2)c1)Nc1ccccc1N1CCCC1
[14]
  inhibition: 26%
[15]
  inhibition: 43%
[16]
  inhibition: 86%
[17]
  inhibition: 85%
[18]
  inhibition: 100%
[19]
  inhibition: 25%
[20]
  inhibition: 100%
[21]
  inhibition: 100%
[22]
  inhibition: 59%
[23]
  inhibition: 56%
[24]
  inhibition: 97%
[25]
  inhibition: 93%
[26]
  inhibition: 57%
[27]
  inhibition: 50%
[28]
  inhibition: 0.6%
